Experimental data from US20240299300A1, “LIPOSOME VITAMIN C PREPARATION” (priority 2023, published 2024).

Tested on: H9 cells, a human T-cell line
Assay: Vitamin C uptake in H9 T-cells
Format: cell-based
Details: 50 μM
Method: At the times indicated in FIG. 13, cells were harvested and measured for vitamin C and protein content. The cellular vitamin C levels of the cells were measured.

cellular vitamin C level (peak) (approximately two hours): 20 nmol/mg protein
cellular vitamin C level (fifteen minutes): 6±1.4 nmol/mg protein
SMILES: O=C1O[C@H]([C@@H](O)CO)C(O)=C1O [nonliposomal vitamin C, ascorbic acid]
